Assay results from patent publication US5167949A, “4(3H)-pteridinones, preparation processes and drugs containing them” (Lipha, Lyonnaise Industrielle Pharmaceutique, priority 1989, dated 1992).
Like-named read-outs stand apart in the source and are kept apart here.

How the values were obtained:
in vivo = details: read-out: median lethal dose
Method: By way of illustration, for the compound described in Example 1, the median lethal doses determined orally on rats and on mice are above 2,000 mg/kg, and the median lethal doses determined intraperitoneally and intravenously on mice are above 1,600 mg/kg.

PAF-acether = assay: bronchospasm induced in anaesthetized guinea pigs by PAF-acether; format: in vivo; details: Cavia porcellus, intravenous, PAF-acether 10 ng/kg/IV
Excerpt: The compounds described are distinguished, in addition, from known products by their long duration of action and by a capacity for antagonizing the effects of PAF-acether, especially its bronchoconstrictor effects.

[1] = test system: passive cutaneous anaphylaxis; assay: passive cutaneous anaphylaxis (PCA) test; format: in vivo; details: Rattus norvegicus, rats, dose decreasing by 50% the skin area occupied by the dye
Method: The anti-allergic activity was measured in rats by the passive cutaneous anaphylaxis or PCA test described by I. Mota, Life Sciences 1963, 7, 465 and Z. Ovary et al., Proceedings of Society of Experimental Biology and Medicine 1952, 81, 584.
In this test, the skin of rats is sensitized by 4 intradermal injections of a homologous anti-ovalbumin serum diluted 15-fold. On the day following sensitization, the animals receive 1 ml/kg of a 2.5% saline solution of Evans blue and 1 ml/kg of a 2.5% saline solution of ovalbumin simultaneously by intravenous injection. The test compounds are administered before the antigen, the time interval being 5 min by intraperitoneal injection and 10 min by the oral route. Thirty minutes after injection of the ovalbumin/dye mixture, the animals are sacrificed and the intensity of the allergic response is determined by measuring the area of skin coloration. The protection provided by the products of the invention is expressed as an ED50 (dose decreasing by 50% the skin area occupied by the dye). Four rats are used for each dose of product.

[2] = ip, intraperitoneal, 5 min before antigen

Structure (SMILES)	ED50 [1, 2] [mg/kg]	ED50 ([1]; oral, 10 min before antigen) [mg/kg]	also measured
CCOCc1nc2nccnc2c(=O)[nH]1 [Example 1, 2-Ethoxymethyl-4(3H)-pteridinone]	7	24	LD50 (in vivo; mouse, ip, mice, intraperitoneal): > 1600 mg/kg; LD50 (in vivo; mouse, mice, intravenous): > 1600 mg/kg; LD50 (in vivo; mouse, mice, oral): > 2000 mg/kg; LD50 (in vivo; rat, rats, oral): > 2000 mg/kg; ED50 (PAF-acether): 0.068 mg/kg
COCc1nc2nccnc2c(=O)[nH]1 [Example 3, 2-Methoxymethyl-4(3H)-pteridinone]	14	33	–
CCCOCc1nc2nccnc2c(=O)[nH]1 [Example 4, 2-Propoxymethyl-4(3H)-pteridinone]	9	25	–
CCOCc1nc2nc(O)cnc2c(=O)[nH]1 [Example 7, 2-Ethoxymethyl-7-hydroxy-4(3H)-pteridinone]	21	–	–
O=c1[nH]c(COc2ccccc2)nc2nccnc12 [Example 9, 2-Phenoxymethyl-4(3H)-pteridinone]	39	–	–
O=c1[nH]c(COCc2ccccc2)nc2nccnc12 [Example 11, 2-Benzyloxymethyl-4(3H)-pteridinone]	10	48	–
COCOCc1nc2nccnc2c(=O)[nH]1 [Example 12, 2-Methoxymethoxymethyl-4(3H)-pteridinone]	18	–	–
CC(C)OCc1nc2nccnc2c(=O)[nH]1 [Example 13, 2-Isopropoxymethyl-4(3H)-pteridinone]	14	–	–
